{"source": "patent US9452986B2", "about": "“6-heteroaryloxy- or 6-aryloxy-quinoline-2-carboxamides and method of use” (AbbVie Inc., priority 2014, dated 2016)", "data": [{"target": "recombinant human Nav1.7 (Homo sapiens (Human), UniProt Q15858)", "sequence (Q15858 whole entry)": "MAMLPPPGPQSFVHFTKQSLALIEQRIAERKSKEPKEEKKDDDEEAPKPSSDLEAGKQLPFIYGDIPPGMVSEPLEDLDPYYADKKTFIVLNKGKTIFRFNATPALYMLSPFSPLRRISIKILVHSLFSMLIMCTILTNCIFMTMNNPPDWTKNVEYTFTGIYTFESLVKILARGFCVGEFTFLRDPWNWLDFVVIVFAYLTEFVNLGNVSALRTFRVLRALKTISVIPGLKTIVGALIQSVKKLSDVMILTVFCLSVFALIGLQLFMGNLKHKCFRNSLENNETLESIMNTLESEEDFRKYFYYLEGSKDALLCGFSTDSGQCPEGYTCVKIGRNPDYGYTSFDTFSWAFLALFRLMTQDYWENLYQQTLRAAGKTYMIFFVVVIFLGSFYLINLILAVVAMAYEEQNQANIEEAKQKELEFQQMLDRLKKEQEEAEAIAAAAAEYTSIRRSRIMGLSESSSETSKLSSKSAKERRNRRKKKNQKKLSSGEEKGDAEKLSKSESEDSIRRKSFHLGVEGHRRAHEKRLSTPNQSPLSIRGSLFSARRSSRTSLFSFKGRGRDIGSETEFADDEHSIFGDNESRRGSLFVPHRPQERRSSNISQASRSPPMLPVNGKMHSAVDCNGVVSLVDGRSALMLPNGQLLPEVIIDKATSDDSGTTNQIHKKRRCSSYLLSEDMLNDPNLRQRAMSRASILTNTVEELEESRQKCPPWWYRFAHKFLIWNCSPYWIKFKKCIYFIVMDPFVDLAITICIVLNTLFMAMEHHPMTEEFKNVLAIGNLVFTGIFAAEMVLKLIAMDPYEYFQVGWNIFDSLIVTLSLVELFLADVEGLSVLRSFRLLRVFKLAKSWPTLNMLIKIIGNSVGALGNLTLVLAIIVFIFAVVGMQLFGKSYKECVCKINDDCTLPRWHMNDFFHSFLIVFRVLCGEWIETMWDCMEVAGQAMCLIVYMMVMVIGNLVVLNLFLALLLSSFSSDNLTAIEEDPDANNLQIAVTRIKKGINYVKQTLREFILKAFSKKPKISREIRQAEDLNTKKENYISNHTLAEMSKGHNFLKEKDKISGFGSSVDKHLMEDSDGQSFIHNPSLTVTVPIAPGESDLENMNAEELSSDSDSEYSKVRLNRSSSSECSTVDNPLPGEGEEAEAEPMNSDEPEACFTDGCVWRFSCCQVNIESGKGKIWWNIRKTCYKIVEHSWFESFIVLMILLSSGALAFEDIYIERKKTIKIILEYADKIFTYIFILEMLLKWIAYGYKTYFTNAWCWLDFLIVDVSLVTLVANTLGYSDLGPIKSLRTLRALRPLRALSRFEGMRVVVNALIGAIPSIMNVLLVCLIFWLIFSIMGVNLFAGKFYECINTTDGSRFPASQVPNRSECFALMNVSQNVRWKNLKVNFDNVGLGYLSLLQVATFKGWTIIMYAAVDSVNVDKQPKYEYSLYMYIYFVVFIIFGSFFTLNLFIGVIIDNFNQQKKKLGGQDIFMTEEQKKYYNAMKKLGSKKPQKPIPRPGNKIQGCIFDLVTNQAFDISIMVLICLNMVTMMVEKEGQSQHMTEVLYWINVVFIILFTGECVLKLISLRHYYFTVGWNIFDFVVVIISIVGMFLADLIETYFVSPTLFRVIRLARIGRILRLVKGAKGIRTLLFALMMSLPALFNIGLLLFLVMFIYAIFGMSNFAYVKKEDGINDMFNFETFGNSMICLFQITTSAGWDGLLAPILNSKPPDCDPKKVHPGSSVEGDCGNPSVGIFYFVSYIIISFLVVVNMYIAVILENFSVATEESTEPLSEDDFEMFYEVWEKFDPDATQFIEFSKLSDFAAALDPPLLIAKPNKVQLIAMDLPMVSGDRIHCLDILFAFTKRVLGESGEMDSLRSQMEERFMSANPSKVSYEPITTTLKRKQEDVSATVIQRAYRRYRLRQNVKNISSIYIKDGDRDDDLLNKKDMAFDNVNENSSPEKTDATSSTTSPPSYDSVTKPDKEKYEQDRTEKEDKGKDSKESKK", "experiment": "FRET-based membrane potential assay, recombinant human sodium channel Nav1.7", "type": "cell-based", "conditions": "HEK293 cells stably expressing recombinant human Nav1.7; veratridine + scorpion venom depolarization; read-out: FRET-Membrane Potential Nav1.7 IC50", "description": "(§1) FRET-Based Membrane Potential Assays.\n(§2) Recombinant, Human Sodium Channel, Nav1.7.\n(§3) On the day of the assay, medium was removed by aspiration, and cells were washed with assay buffer [HBSS (Invitrogen, Carlsbad, Calif.) containing 20 mM HEPES (Invitrogen, Carlsbad, Calif.)]. […] Cells were incubated for 40 minutes at room temperature in the dark. […] The cells were incubated for 90 minutes at room temperature in the dark. Fluorescence readings were made using a FLIPR®^TETRA (Molecular Devices, Sunnyvale Calif.) equipped with voltage-sensor probe optics. At the start of each experiment the optimal (EC80) concentration of depolarizing agent (veratridine) was determined by testing a dilution curve of assay buffer containing veratridine (Sigma-Aldrich, St. Louis, Mo.) and 1 mg/mL scorpion venom (SVqq, from Leiurus quinquestriatus; Sigma-Aldrich, St. Louis, Mo.). […] Test compounds in the daughter plate were diluted to (˜3×) solutions in assay buffer immediately before assaying. Using the FLIPR®^TETRA, 20 μL of the (3×) compound solutions were first added to the cells, then 20 μL of depolarizing solution (3×EC80 veratridine+SVqq) were added 3 minutes later to activate the channel. […] IC50 values were calculated from curve fits of the ratio data using a four-parameter logistic Hill equation (Accelrys Assay Explorer 3.3 Client, Accelrys, San Diego, Calif.) with percent inhibition plotted against compound concentration.", "units": {"IC50": "nM"}, "values": [{"molecule": "CC(C)[C@H](CO)NC(=O)c1ccc2cc(Oc3ccc(C#N)cc3)ccc2n1", "note": "[Example 91, 6-(4-cyanophenoxy)-N-[(2R)-1-hydroxy-3-methylbutan-2-yl]quinoline-2-carboxamide]", "IC50": 3250}, {"molecule": "N#Cc1ccc(Oc2ccc3nc(C(=O)NCc4cccs4)ccc3c2)cc1", "note": "[Example 92, 6-(4-cyanophenoxy)-N-(2-thienylmethyl)quinoline-2-carboxamide]", "IC50": 9830}, {"molecule": "N#Cc1ccc(Oc2ccc3nc(C(=O)NCCc4cccs4)ccc3c2)cc1", "note": "[Example 93, 6-(4-cyanophenoxy)-N-[2-(2-thienyl)ethyl]quinoline-2-carboxamide]", "IC50": 1550}, {"molecule": "N#Cc1ccc(Oc2ccc3nc(C(=O)NCc4ccco4)ccc3c2)cc1", "note": "[Example 94, 6-(4-cyanophenoxy)-N-(2-furylmethyl)quinoline-2-carboxamide]", "IC50": 5250}, {"molecule": "CC(C)C(CO)NC(=O)c1ccc2cc(Oc3ccc(C#N)cc3)ccc2n1", "note": "(centres unmarked) [Example 95, 6-(4-cyanophenoxy)-N-(1-hydroxy-3-methylbutan-2-yl)quinoline-2-carboxamide]", "IC50": 4870}, {"molecule": "N#Cc1ccc(Oc2ccc3nc(C(=O)NCCN4CCCC4)ccc3c2)cc1", "note": "[Example 96, 6-(4-cyanophenoxy)-N-[2-(pyrrolidin-1-yl)ethyl]quinoline-2-carboxamide]", "IC50": 329}, {"molecule": "N#Cc1ccc(Oc2ccc3nc(C(=O)NCc4ccncc4)ccc3c2)cc1", "note": "[Example 98, 6-(4-cyanophenoxy)-N-(pyridin-4-ylmethyl)quinoline-2-carboxamide]", "IC50": 885}, {"molecule": "Cc1ccc(CNC(=O)c2ccc3cc(Oc4ccc(C#N)cc4)ccc3n2)o1", "note": "[Example 99, 6-(4-cyanophenoxy)-N-[(5-methyl-2-furyl)methyl]quinoline-2-carboxamide]", "IC50": 5050}, {"molecule": "N#Cc1ccc(Oc2ccc3nc(C(=O)NCCCN4CCCCC4)ccc3c2)cc1", "note": "[Example 100, 6-(4-cyanophenoxy)-N-[3-(piperidin-1-yl)propyl]quinoline-2-carboxamide]", "IC50": 221}, {"molecule": "N#Cc1ccc(Oc2ccc3nc(C(=O)NCc4cccc(OC(F)(F)F)c4)ccc3c2)cc1", "note": "[Example 102, 6-(4-cyanophenoxy)-N-[3-(trifluoromethoxy)benzyl]quinoline-2-carboxamide]", "IC50": "> 20000"}, {"molecule": "Cc1ccc(CNC(=O)c2ccc3cc(Oc4ccc(C#N)cc4)ccc3n2)cc1", "note": "[Example 103, 6-(4-cyanophenoxy)-N-(4-methylbenzyl)quinoline-2-carboxamide]", "IC50": "> 20000"}, {"molecule": "N#Cc1ccc(Oc2ccc3nc(C(=O)NCc4ccc5c(c4)OCO5)ccc3c2)cc1", "note": "[Example 104, N-(1,3-benzodioxol-5-ylmethyl)-6-(4-cyanophenoxy)quinoline-2-carboxamide]", "IC50": "> 20000"}, {"molecule": "COc1cccc(CNC(=O)c2ccc3cc(Oc4ccc(C#N)cc4)ccc3n2)c1OC", "note": "[Example 105, 6-(4-cyanophenoxy)-N-(2,3-dimethoxybenzyl)quinoline-2-carboxamide]", "IC50": 7250}, {"molecule": "N#Cc1ccc(Oc2ccc3nc(C(=O)N4CCCCCC4)ccc3c2)cc1", "note": "[Example 106, 4-{[2-(azepan-1-ylcarbonyl)quinolin-6-yl]oxy}benzonitrile]", "IC50": 2420}, {"molecule": "CCCN(CCOC)C(=O)c1ccc2cc(Oc3ccc(C#N)cc3)ccc2n1", "note": "[Example 107, 6-(4-cyanophenoxy)-N-(2-methoxyethyl)-N-propylquinoline-2-carboxamide]", "IC50": 4120}, {"molecule": "CCOCCNC(=O)c1ccc2cc(Oc3ccc(C#N)cc3)ccc2n1", "note": "[Example 108, 6-(4-cyanophenoxy)-N-(2-ethoxyethyl)quinoline-2-carboxamide]", "IC50": 2410}, {"molecule": "N#Cc1ccc(Oc2ccc3nc(C(=O)NC4CCN(Cc5ccccc5)C4)ccc3c2)cc1", "note": "(centres unmarked) [Example 109, N-(1-benzylpyrrolidin-3-yl)-6-(4-cyanophenoxy)quinoline-2-carboxamide]", "IC50": 660}, {"molecule": "N#Cc1ccc(Oc2ccc3nc(C(=O)N4CCCC(C(F)(F)F)C4)ccc3c2)cc1", "note": "(centres unmarked) [Example 110, 4-[(2-{[3-(trifluoromethyl)piperidin-1-yl]carbonyl}quinolin-6-yl)oxy]benzonitrile]", "IC50": 1960}, {"molecule": "N#Cc1ccc(Oc2ccc3nc(C(=O)N[C@@H]4CCOC4=O)ccc3c2)cc1", "note": "[Example 113, 6-(4-cyanophenoxy)-N-[(3R)-2-oxotetrahydrofuran-3-yl]quinoline-2-carboxamide]", "IC50": 741}, {"molecule": "CS(=O)(=O)NC(=O)c1ccc2cc(Oc3ccc(C#N)cc3)ccc2n1", "note": "[Example 115, 6-(4-cyanophenoxy)-N-(methylsulfonyl)quinoline-2-carboxamide]", "IC50": 11200}, {"molecule": "N#Cc1ccc(Oc2ccc3nc(C(=O)NC4CCCOC4)ccc3c2)cc1", "note": "(centres unmarked) [Example 116, 6-(4-cyanophenoxy)-N-(tetrahydro-2H-pyran-3-yl)quinoline-2-carboxamide]", "IC50": 1030}, {"molecule": "CC(C)(O)CNC(=O)c1ccc2cc(Oc3ccc(C#N)cc3)ccc2n1", "note": "[Example 122, 6-(4-cyanophenoxy)-N-(2-hydroxy-2-methylpropyl)quinoline-2-carboxamide]", "IC50": 2490}, {"molecule": "N#Cc1ccc(Oc2ccc3nc(C(=O)N[C@H]4CC[C@H](O)CC4)ccc3c2)cc1", "note": "[Example 125, 6-(4-cyanophenoxy)-N-(trans-4-hydroxycyclohexyl)quinoline-2-carboxamide]", "IC50": 3460}, {"molecule": "N#Cc1ccc(Oc2ccc3nc(C(=O)NC(CO)CO)ccc3c2)cc1", "note": "[Example 126, 6-(4-cyanophenoxy)-N-(1,3-dihydroxypropan-2-yl)quinoline-2-carboxamide]", "IC50": 8760}, {"molecule": "N#Cc1ccc(Oc2ccc3nc(C(=O)N[C@H]4CCC[C@@H](O)C4)ccc3c2)cc1", "note": "[Example 129, 6-(4-cyanophenoxy)-N-[(1S,3R)-3-hydroxycyclohexyl]quinoline-2-carboxamide]", "IC50": 2580}, {"molecule": "N#Cc1ccc(Oc2ccc3nc(C(=O)N[C@H]4CC[C@@H](O)C4)ccc3c2)cc1", "note": "[Example 130, 6-(4-cyanophenoxy)-N-[(1S,3R)-3-hydroxycyclopentyl]quinoline-2-carboxamide]", "IC50": 2050}]}, {"target": "recombinant human Nav1.7 (Homo sapiens (Human), UniProt Q15858)", "experiment": "FRET-based membrane potential assay, recombinant human sodium channel Nav1.7", "type": "cell-based", "conditions": "read-out: FRET-Membrane Potential Nav1.7 IC50", "description": "as §1, §2, §3", "units": {"IC50": "nM"}, "values": [{"molecule": "N#Cc1ccc(Oc2ccc3nc(C(=O)NCc4ccccn4)ccc3c2)cc1", "note": "[Example 97, 6-(4-cyanophenoxy)-N-(pyridin-2-ylmethyl)quinoline-2-carboxamide]", "IC50": 842}, {"molecule": "N#Cc1ccc(Oc2ccc3nc(C(=O)Nc4ccc(Oc5ccccc5)cc4)ccc3c2)cc1", "note": "[Example 101, 6-(4-cyanophenoxy)-N-(4-phenoxyphenyl)quinoline-2-carboxamide]", "IC50": "> 20000"}, {"molecule": "N#Cc1ccc(Oc2ccc3nc(C(=O)N4CCc5ccccc54)ccc3c2)cc1", "note": "[Example 111, 4-{[2-(2,3-dihydro-1H-indol-1-ylcarbonyl)quinolin-6-yl]oxy}benzonitrile]", "IC50": "> 20000"}, {"molecule": "N#Cc1ccc(Oc2ccc3nc(C(=O)N4CCNCC4)ccc3c2)cc1", "note": "[Example 112, 4-{[2-(piperazin-1-ylcarbonyl)quinolin-6-yl]oxy}benzonitrile]", "IC50": 1480}, {"molecule": "N#Cc1ccc(Oc2ccc3nc(C(=O)NC4CCOC4)ccc3c2)cc1", "note": "(centres unmarked) [Example 114, 6-(4-cyanophenoxy)-N-(tetrahydrofuran-3-yl)quinoline-2-carboxamide]", "IC50": 560}, {"molecule": "N#Cc1ccc(Oc2ccc3nc(C(=O)N[C@@H]4CCOC4)ccc3c2)cc1", "note": "[Example 117, 6-(4-cyanophenoxy)-N-[(3R)-tetrahydrofuran-3-yl]quinoline-2-carboxamide]", "IC50": 2230}, {"molecule": "N#Cc1ccc(Oc2ccc3nc(C(=O)N[C@H]4CCOC4)ccc3c2)cc1", "note": "[Example 118, 6-(4-cyanophenoxy)-N-[(3S)-tetrahydrofuran-3-yl]quinoline-2-carboxamide]", "IC50": 2270}, {"molecule": "N#Cc1ccc(Oc2ccc3nc(C(=O)N[C@@H]4CCCC[C@@H]4O)ccc3c2)cc1", "note": "[Example 119, 6-(4-cyanophenoxy)-N-[(1R,2S)-2-hydroxycyclohexyl]quinoline-2-carboxamide]", "IC50": 819}, {"molecule": "N#Cc1ccc(Oc2ccc3nc(C(=O)N[C@H]4CCCC[C@@H]4O)ccc3c2)cc1", "note": "[Example 120, 6-(4-cyanophenoxy)-N-[(1S,2S)-2-hydroxycyclohexyl]quinoline-2-carboxamide]", "IC50": 2040}, {"molecule": "N#Cc1ccc(Oc2ccc3nc(C(=O)N[C@H]4CCC[C@@H]4O)ccc3c2)cc1", "note": "[Example 121, 6-(4-cyanophenoxy)-N-[(1S,2S)-2-hydroxycyclopentyl]quinoline-2-carboxamide]", "IC50": 1660}, {"molecule": "N#Cc1ccc(Oc2ccc3nc(C(=O)NC4(CO)CC4)ccc3c2)cc1", "note": "[Example 123, 6-(4-cyanophenoxy)-N-[1-(hydroxymethyl)cyclopropyl]quinoline-2-carboxamide]", "IC50": 6550}, {"molecule": "CC(C)(CO)NC(=O)c1ccc2cc(Oc3ccc(C#N)cc3)ccc2n1", "note": "[Example 124, 6-(4-cyanophenoxy)-N-(1-hydroxy-2-methylpropan-2-yl)quinoline-2-carboxamide]", "IC50": 2140}, {"molecule": "CC(CO)NC(=O)c1ccc2cc(Oc3ccc(C#N)cc3)ccc2n1", "note": "(centres unmarked) [Example 127, 6-(4-cyanophenoxy)-N-(1-hydroxypropan-2-yl)quinoline-2-carboxamide]", "IC50": 4070}, {"molecule": "CC(O)CNC(=O)c1ccc2cc(Oc3ccc(C#N)cc3)ccc2n1", "note": "(centres unmarked) [Example 128, 6-(4-cyanophenoxy)-N-(2-hydroxypropyl)quinoline-2-carboxamide]", "IC50": 2850}, {"molecule": "N#Cc1ccc(Oc2ccc3nc(C(=O)N[C@@H]4CCC[C@@H]4O)ccc3c2)cc1", "note": "[Example 131, 6-(4-cyanophenoxy)-N-[(1R,2S)-2-hydroxycyclopentyl]quinoline-2-carboxamide]", "IC50": 1150}]}]}
